Results published in patent US11584765B2 (priority 2017, dated 2023).

System: C57BL/6 mice
Experiment: animal or person
Format: in vivo
Settings: Mus musculus, sc, 0.5 h, s.c. administration, 30 min, 55° C. water, read-out: ED50 (mg/kg) at 30 min on C57BL/6 mice in Warm-water Tail-flick Test

SMILES | ED50
CCOCC1(CCC2CC2)CCN(C(C)(C)c2ccc(C)nc2)C1 (centres unmarked) [Compound 431, 5-(2-(3-(2-cyclopropylethyl)-3-(ethoxy-methyl)pyrrolidin-1-yl)propan-2-yl)-2-methylpyridine] | < 10 mg/kg
CCOCC1(CCc2ccccc2)CCN(C)CC1 [Compound 79, 4-(ethoxymethyl)-1-methyl-4-phenethylpiperidine] | > 10 mg/kg
CCOC(=O)NCC1(CCc2ccccc2)CCN(Cc2ccc(NC(C)=O)cc2)CC1 [Compound 77, ethyl (1-(4-acetamidobenzyl)-4-phenethylpiperidin-4-yl)methylcarbamate] | > 10 mg/kg
CCOC[C@@]1(CCc2ccc(F)cn2)CCN(C(=O)c2ccc(C)nc2)C1 [Compound 380, (S)-(3-(ethoxymethyl)-3-(2-(5-fluoropyridin-2-yl)ethyl)pyrrolidin-1-yl)(6-methylpyridin-3-yl)methanone] | > 10 mg/kg
CC(=O)Nc1ccc(CN2CCC(CCc3ccccc3)(C3(C)CCCO3)C2)cc1 (centres unmarked) [Compound 200, N-(4-((3-(2-methyltetrahydro-furan-2-yl)-3-phenethylpyrrolidin-1-yl)methyl)phenyl)acetamide] | < 10 mg/kg
C=CCC1(c2ccccn2)CCN(Cc2ccc(NC(C)=O)cc2)CC1 [Compound 49, N-(4-((4-allyl-4-(pyridin-2-yl)piperidin-1-yl)methyl)phenyl)acetamide] | > 10 mg/kg
CCOC[C@@]1(CCc2cccs2)CCN(Cc2ccc(C)nc2)C1 [Compound 333, (S)-5-((3-(ethoxymethyl)-3-(2-(thiophen-2-yl)ethyl)pyrrolidin-1-yl)methyl)-2-methylpyridine] | < 10 mg/kg
CC(=O)Nc1ccc(CN2CCC(CCc3ccccc3)(C3CCCCO3)C2)cc1 (centres unmarked) [Compound 208, N-(4-((3-phenethyl-3-(tetrahydro-2H-pyran-2-yl)pyrrolidin-1-yl)methyl)phenyl)acetamide] | < 10 mg/kg
Cn1cccc1CN1CCC(CCc2ccccc2)(C2CCCO2)C1 (centres unmarked) [Compound 227, 1-methyl-2-((3-phenethyl-3-(tetrahydrofuran-2-yl)pyrrolidin-1-yl)methyl)-1H-pyrrole] | > 10 mg/kg
Cn1cncc1CN1CCC(CCc2ccccc2)(C2CCCO2)C1 (centres unmarked) [Compound 221, 1-methyl-5-((3-phenethyl-3-(tetrahydrofuran-2-yl)pyrrolidin-1-yl)methyl)-1H-imidazole] | > 10 mg/kg
Nc1ccc(CN2CCC(CCc3ccccc3)(c3ccccn3)CC2)cc1 [Compound 41, 4-((4-phenethyl-4-(pyridin-2-yl)piperidin-1-yl)methyl)aniline] | > 10 mg/kg
CCOCC1(CCc2ccccc2)CCN(Cc2ccc(NC(=O)C(F)(F)F)cc2)CC1 [Compound 115, N-(4-((4-(ethoxymethyl)-4-phenethylpiperidin-1-yl)methyl)phenyl)-2,2,2-trifluoroacetamide] | > 10 mg/kg
CCOCC1(CCc2ccccc2)CCN(C(C)c2ccc(C)nc2)C1 (centres unmarked) [Compound 294, 5-(1-(3-(ethoxymethyl)-3-phenethyl-pyrrolidin-1-yl)ethyl)-2-methylpyridine] | < 10 mg/kg
CC(=O)Nc1ccc(CN2CCC(CCc3cccs3)(C3CCO3)CC2)cc1 (centres unmarked) [Compound 171, N-(4-((4-(oxetan-2-yl)-4-(2-(thiophen-2-yl)ethyl)piperidin-1-yl)methyl)phenyl)acetamide] | < 10 mg/kg
OC[C@@]1(CCc2cccs2)CCN(Cc2cccnc2)C1 [Compound 412, (S)-(1-(pyridin-3-ylmethyl)-3-(2-(thiophen-2-yl)ethyl)pyrrolidin-3-yl)methanol] | < 10 mg/kg
CCOCC1(CCc2ccccc2)CCN(Cc2ccc(-c3ncon3)cc2)CC1.Cl [Compound 136, 3-(4-((4-(ethoxymethyl)-4-phenethylpiperidin-1-yl)methyl)phenyl)-1,2,4-oxadiazole HCl] | > 10 mg/kg
CC(=O)Nc1ccc(CN2CC[C@@](CCc3ccccc3)([C@@H]3C=CCO3)C2)cc1 (single isomer, unassigned) [Compound 258] | < 10 mg/kg
CCOCC1(CCc2ccccc2)CCN(Cc2ccc(C(=O)NC)cc2)CC1 [Compound 90, 4-((4-(ethoxymethyl)-4-phenethylpiperidin-1-yl)methyl)-N-methylbenzamide] | > 10 mg/kg
CC(=O)Nc1ccc(CN2CCC(CCc3ccccc3)(Cc3ccccn3)CC2)cc1 [Compound 39, N-(4-((4-phenethyl-4-(pyridin-2-ylmethyl)piperidin-1-yl)methyl)phenyl)acetamide] | > 10 mg/kg
CC(=O)Nc1ccc(CN2CC[C@](CCc3ccccc3)([C@@H]3C=CCO3)C2)cc1 (single isomer, unassigned) [Compound 260] | > 10 mg/kg
CCOC[C@]1(CCc2ccccc2)CCN(Cc2cnn(C)c2)C1 [Compound 234, (R)-4-((3-(ethoxymethyl)-3-phenethylpyrrolidin-1-yl)methyl)-1-methyl-1H-pyrazole] | > 10 mg/kg
CC(=O)Nc1ccc(CN2CCC(CCc3ccccc3)(C3C=C(C)CO3)C2)cc1 (centres unmarked) [Compound 202, N-(4-((3-(4-methyl-2,5-dihydrofuran-2-yl)-3-phenethylpyrrolidin-1-yl)methyl)phenyl)acetamide] | < 10 mg/kg

SMILES | ED50
c1ccc(CCC2(C3CCCO3)CCN(Cc3cnn(-c4cccnc4)c3)C2)cc1 (centres unmarked) [Compound 265, 3-(4-((3-phenethyl-3-(tetrahydrofuran-2-yl)pyrrolidin-1-yl)methyl)-1H-pyrazol-1-yl)pyridine] | > 10 mg/kg
CCOC[C@@]1(CCc2nccc(OC)n2)CCN(C(C)(C)c2ccc(C)nc2)C1.Cl [Compound 377, (S)-2-(2-(3-(ethoxymethyl)-1-(2-(6-methylpyridin-3-yl)propan-2-yl)pyrrolidin-3-yl)ethyl)-4-methoxypyrimidine HCl] | < 10 mg/kg
CCOCC1(CCc2ccc(C)s2)CCN(Cc2ccc(C)nc2)CC1 [Compound 304, 5-((4-(ethoxymethyl)-4-(2-(5-methylthiophen-2-yl)ethyl)piperidin-1-yl)methyl)-2-methylpyridine] | < 10 mg/kg
CCOCC1(CCc2ccccc2)CCN(Cc2ccccc2-c2ccco2)C1 (centres unmarked) [Compound 317] | > 10 mg/kg
Cn1cc(CN2CCC(CCc3ccccc3)(C3CCCO3)C2)cn1 (centres unmarked) [Compound 198, 1-methyl-4-((3-phenethyl-3-(tetrahydrofuran-2-yl)pyrrolidin-1-yl)methyl)-1H-pyrazole] | < 10 mg/kg
CCOCC1(CCC2CCCS2)CCCN1Cc1cccnc1.Cl (centres unmarked) [Compound 455, 3-((2-(ethoxymethyl)-2-(2-(tetrahydrothiophen-2-yl)ethyl)pyrrolidin-1-yl)methyl)pyridine HCl] | > 10 mg/kg
CCOCC1(CCc2ccc(F)cc2)CCN(Cc2ccc(C)nc2C)C1 (centres unmarked) [Compound 311, 3-((3-(ethoxymethyl)-3-(4-fluoro-phenethyl)pyrrolidin-1-yl)methyl)-2,6-dimethylpyridine] | < 10 mg/kg
CCOC[C@@]1(CCc2cccnc2)CCN(C(C)(C)c2ccc(C)nc2)C1 [Compound 371, (S)-5-(2-(3-(ethoxymethyl)-3-(2-(pyridin-3-yl)ethyl)pyrrolidin-1-yl)propan-2-yl)-2-methylpyridine] | < 10 mg/kg
CCOCC1(CCc2ccccc2)CCN(Cc2ccc(Br)cc2)CC1 [Compound 150, 1-(4-bromobenzyl)-4-(ethoxymethyl)-4-phenethylpiperidine] | > 10 mg/kg
CCOCC1(CCc2nccs2)CCN(Cc2ccc(NC(C)=O)cc2)CC1.Cl [Compound 103, N-(4-((4-(ethoxymethyl)-4-(2-(thiazol-2-yl)ethyl)piperidin-1-yl)methyl)phenyl)acetamide HCl] | > 10 mg/kg
CCOC[C@@]1(CCc2ccc(C)s2)CCN(C(C)(C)c2ccc(C)nc2)C1 [Compound 373, (S)-5-(2-(3-(ethoxymethyl)-3-(2-(5-methylthiophen-2-yl)ethyl)pyrrolidin-1-yl)propan-2-yl)-2-methylpyridine] | < 10 mg/kg
CCOC[C@@]1(CCc2nccs2)CCN(C(C)(C)c2ccc(C)nc2)C1 [Compound 363, (S)-2-(2-(3-(ethoxymethyl)-1-(2-(6-methylpyridin-3-yl)propan-2-yl)pyrrolidin-3-yl)ethyl)thiazole] | < 10 mg/kg
c1ccc(CCC2(C3CCCO3)CCN(Cc3ccccn3)C2)cc1 (centres unmarked) [Compound 225, 2-((3-phenethyl-3-(tetrahydrofuran-2-yl)pyrrolidin-1-yl)methyl)pyridine] | > 10 mg/kg
CCOC[C@@]1(CCc2ccc(F)cc2)CCN(C2(c3ccc(C)nc3)CC2)C1 [Compound 434, (S)-5-(1-(3-(ethoxymethyl)-3-(4-fluoro-phenethyl)pyrrolidin-1-yl)cyclopropyl)-2-methylpyridine] | < 10 mg/kg
CC(=O)NCCN1CCC(CCc2ccccc2)(c2ccccn2)CC1 [Compound 36, N-(2-(4-phenethyl-4-(pyridin-2-yl)piperidin-1-yl)ethyl)acetamide] | > 10 mg/kg
CC(=O)Nc1ccc(CN2CCC(CCc3ccccc3)(c3ccccn3)CC2)cc1 [Compound 5] | < 10 mg/kg
CC(=O)Nc1ccc(CN2CCC(CCc3ccsc3)(c3ccccn3)CC2)cc1 [Compound 184, N-(4-((4-(pyridin-2-yl)-4-(2-(thiophen-3-yl)ethyl)piperidin-1-yl)methyl)phenyl)acetamide] | > 10 mg/kg
CC(C)(c1cccnc1)N1CCC(CCc2cccs2)(c2ccccn2)CC1 [Compound 396, 2-(1-(2-(pyridin-3-yl)propan-2-yl)-4-(2-(thiophen-2-yl)ethyl)piperidin-4-yl)pyridine] | < 10 mg/kg
CCOC(C)(C)[C@@]1(CCc2cccs2)CCN(C(C)(C)c2ccc(C)nc2)C1 [Compound 402, (S)-5-(2-(3-(2-ethoxypropan-2-yl)-3-(2-(thiophen-2-yl)ethyl)pyrrolidin-1-yl)propan-2-yl)-2-methylpyridine] | < 10 mg/kg
CCOCC1(CCc2cccs2)CCN(Cc2cccnc2)C1 (centres unmarked) [Compound 251, 3-((3-(ethoxymethyl)-3-(2-(thiophen-2-yl)ethyl)pyrrolidin-1-yl)methyl)pyridine] | < 10 mg/kg
CCOCC1(CCc2ccccc2)CCN(c2ccc(N(C)C)cc2)CC1 [Compound 127, 4-(4-(ethoxymethyl)-4-phenethylpiperidin-1-yl)-N,N-dimethylaniline] | > 10 mg/kg
NC(=O)Nc1ccc(CN2CCC(CCc3ccccc3)(c3ccccn3)CC2)cc1 [Compound 23, 1-(4-((4-phenethyl-4-(pyridin-2-yl)piperidin-1-yl)methyl)phenyl)urea] | > 10 mg/kg
